Results reported in the supplement of paper PMC10307832.

compound: CC1(COc2ccc3c(c2)ncn3-c2ccc3cccc(N4CCC(N)CC4)c3n2)COC1 [Crenolanib]; assay: relative viability (nuclei count vs DMSO), 5 days (fraction); higher = more cells survive; conditions: 0.01 µM
Summary of the method: (§1)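 Five library-drug doses spaced by √10 were pinned onto vehicle-anchored 1536-well plates of lung cancer cell lines that had been kept overnight at 37 °C. Cells went 5 days without medium change, then were fixed, permeabilised and Hoechst-stained together, imaged at 4× and counted by MetaXpress. Viability is the ratio of treated-well to vehicle-well nuclei, taken as a median over plates. Plates required control CV below 25% and at least one doubling.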

Cell Line	relative viability
Calu-6	1.1
HCC-44	1.04
NCI-H1703	0.948
NCI-H647	0.983
LK-2	0.981
NCI-H2126	1.03
SK-MES-1	1.05
HARA	1.07
COR-L23	1.04
COR-L 105	1.03
LC-2-ad	1.01
LU99A	1.1
NCI-H2170	0.998
NCI-H3122	1.02
IA-LM	1.1
HCC-78	1.01
A549	1.05
LXF-289	0.964

Cell Line	relative viability
BEN	0.989
HCC-15	1.01
HCC-827	1.08
LOU-NH91	1.02
NCI-H2023	1.1
A-427	0.953
NCI-H460	1
NCI-H727	0.949
NCI-H1755	0.965
NCI-H520	0.93
NCI-H2405	0.999
SW 1573	1.01
NCI-H1395	0.983
201T	0.97
NCI-H1975	1.1
HOP-62	0.986
NCI-H1299	1.01

same assay, conditions: 0.03162 µM

Cell Line	relative viability
NCI-H2087	1.04
Calu-6	0.992
HCC-44	0.965
NCI-H1703	0.759
NCI-H647	0.915
LK-2	1.04
NCI-H2126	1.05
SK-MES-1	1.01
HARA	1
COR-L23	1.02
COR-L 105	0.953
LC-2-ad	0.982
LU99A	0.974
NCI-H2170	1.04
NCI-H3122	0.989
IA-LM	0.888
HCC-78	0.808
A549	0.977

Cell Line	relative viability
LXF-289	0.996
BEN	0.877
HCC-15	0.991
HCC-827	1.02
LOU-NH91	0.939
NCI-H2023	1.03
A-427	0.969
NCI-H460	0.998
NCI-H727	1.05
NCI-H1755	1.03
NCI-H520	0.999
NCI-H2405	0.885
SW 1573	1.01
NCI-H1395	0.778
201T	0.983
NCI-H1975	0.977
HOP-62	1.02
NCI-H1299	0.995

same assay, conditions: 0.1 µM

Cell Line	relative viability
NCI-H2087	0.88
Calu-6	0.978
HCC-44	0.994
NCI-H1703	0.534
NCI-H647	0.973
LK-2	0.979
NCI-H2126	0.937
SK-MES-1	0.973
HARA	0.945
COR-L23	0.952
COR-L 105	0.852
LC-2-ad	0.94
LU99A	1.04
NCI-H2170	0.943
NCI-H3122	0.98
IA-LM	0.852
HCC-78	0.84
A549	0.959

Cell Line	relative viability
LXF-289	0.97
BEN	0.962
HCC-15	0.93
HCC-827	1.03
LOU-NH91	0.929
NCI-H2023	0.952
A-427	0.976
NCI-H460	0.975
NCI-H727	0.873
NCI-H1755	0.989
NCI-H520	1.05
NCI-H2405	0.81
SW 1573	0.955
NCI-H1395	0.975
201T	0.972
NCI-H1975	0.907
HOP-62	0.977
NCI-H1299	0.982

same assay, conditions: 0.3162 µM

Cell Line	relative viability
NCI-H2087	1.05
Calu-6	1.08
HCC-44	0.986
NCI-H1703	0.313
NCI-H647	1
LK-2	1.14
NCI-H2126	0.987
SK-MES-1	1.06
HARA	1
COR-L23	1.04
COR-L 105	0.963
LC-2-ad	0.976
LU99A	1
NCI-H2170	1.01
NCI-H3122	1.1
IA-LM	1.07
HCC-78	1.02
A549	1.12

Cell Line	relative viability
LXF-289	1.01
BEN	0.988
HCC-15	1.08
HCC-827	1.04
LOU-NH91	0.891
NCI-H2023	1.17
A-427	0.948
NCI-H460	0.995
NCI-H727	0.943
NCI-H1755	1.03
NCI-H520	0.908
NCI-H2405	1
SW 1573	1.01
NCI-H1395	0.795
201T	0.988
NCI-H1975	0.887
HOP-62	1.1
NCI-H1299	1.02

same assay, conditions: 1 µM

Cell Line	relative viability
NCI-H2087	0.967
Calu-6	0.959
HCC-44	0.806
NCI-H1703	0.21
NCI-H647	0.929
LK-2	0.898
NCI-H2126	0.928
SK-MES-1	0.936
HARA	1.05
COR-L23	0.915
COR-L 105	0.915
LC-2-ad	0.866
LU99A	1.02
NCI-H2170	1.01
NCI-H3122	1.1
IA-LM	1.1
HCC-78	0.804
A549	0.949

Cell Line	relative viability
LXF-289	0.976
BEN	0.965
HCC-15	0.803
HCC-827	0.958
LOU-NH91	0.906
NCI-H2023	0.785
A-427	0.927
NCI-H460	0.956
NCI-H727	0.909
NCI-H1755	0.959
NCI-H520	1.05
NCI-H2405	0.871
SW 1573	0.986
NCI-H1395	0.853
201T	1.01
NCI-H1975	0.838
HOP-62	0.933
NCI-H1299	0.997

compound: O=C1NC(=O)[C@@H](c2cn3c4c(cccc24)CCC3)[C@@H]1c1c[nH]c2ccccc12 [Tivantinib]; assay: as above; conditions: 0.01 µM
Summary of the method: as §1

Cell Line	relative viability
NCI-H2087	1.11
Calu-6	0.989
HCC-44	1.02
NCI-H1703	1.22
NCI-H647	1.06
LK-2	1.04
NCI-H2126	0.959
SK-MES-1	1.06
HARA	0.982
COR-L23	1.06
COR-L 105	0.912
LC-2-ad	0.977
LU99A	1.06
NCI-H2170	1.01
NCI-H3122	0.986
IA-LM	0.956
HCC-78	0.979
A549	0.993

Cell Line	relative viability
LXF-289	1.03
BEN	1
HCC-15	0.988
HCC-827	1.06
LOU-NH91	0.932
NCI-H2023	1.02
A-427	0.959
NCI-H460	0.986
NCI-H727	0.941
NCI-H1755	1.05
NCI-H520	1.14
NCI-H2405	1.07
SW 1573	1.02
NCI-H1395	1.07
201T	0.966
NCI-H1975	1.02
HOP-62	0.975
NCI-H1299	0.998

same assay, conditions: 0.03162 µM

Cell Line	relative viability
NCI-H2087	0.936
Calu-6	1.03
HCC-44	1.03
NCI-H1703	0.923
NCI-H647	0.992
NCI-H2126	0.945
SK-MES-1	0.912
HARA	0.775
COR-L23	0.933
COR-L 105	0.734
LC-2-ad	0.933
LU99A	0.76
NCI-H2170	0.922
NCI-H3122	1
IA-LM	0.897
HCC-78	0.922
A549	0.979
LXF-289	1.03

Cell Line	relative viability
BEN	0.854
HCC-15	0.91
HCC-827	1.07
LOU-NH91	0.946
NCI-H2023	0.859
A-427	0.978
NCI-H460	0.971
NCI-H727	0.897
NCI-H1755	0.991
NCI-H520	0.968
NCI-H2405	1.01
SW 1573	0.866
NCI-H1395	1.08
201T	0.938
NCI-H1975	0.956
HOP-62	0.787
NCI-H1299	0.986

same assay, conditions: 0.1 µM

Cell Line	relative viability
NCI-H2087	0.95
Calu-6	0.977
HCC-44	1.02
NCI-H1703	0.895
NCI-H647	0.881
LK-2	0.892
NCI-H2126	0.989
SK-MES-1	0.91
HARA	0.941
COR-L23	0.942
COR-L 105	0.892
LC-2-ad	0.934
LU99A	0.909
NCI-H2170	0.921
NCI-H3122	0.923
IA-LM	0.864
HCC-78	0.917
A549	0.793

Cell Line	relative viability
LXF-289	0.977
BEN	0.873
HCC-15	0.977
HCC-827	1.04
LOU-NH91	1.02
NCI-H2023	0.856
A-427	0.976
NCI-H460	0.98
NCI-H727	0.802
NCI-H1755	0.956
NCI-H520	0.867
NCI-H2405	0.983
SW 1573	0.981
NCI-H1395	0.907
201T	0.924
NCI-H1975	0.837
HOP-62	0.972
NCI-H1299	0.998

same assay, conditions: 0.3162 µM

Cell Line	relative viability
NCI-H2087	1.06
Calu-6	0.989
HCC-44	0.908
NCI-H1703	0.795
NCI-H647	0.946
LK-2	0.89
NCI-H2126	0.869
SK-MES-1	0.915
HARA	0.625
COR-L23	1.11
COR-L 105	0.537
LC-2-ad	1.01
LU99A	1.01
NCI-H3122	0.877
IA-LM	0.978
HCC-78	0.655
A549	0.992
LXF-289	1.01

Cell Line	relative viability
BEN	0.786
HCC-15	1.08
HCC-827	0.765
LOU-NH91	0.747
NCI-H2023	0.824
A-427	1.02
NCI-H460	0.999
NCI-H727	0.631
NCI-H1755	1.09
NCI-H520	0.964
NCI-H2405	1.03
SW 1573	0.958
NCI-H1395	0.924
201T	1.01
NCI-H1975	0.825
HOP-62	1.02
NCI-H1299	1.03
